Measured values from patent US20110014243A1, “PHARMACEUTICAL COMPOSITIONS” (priority 2007, published 2011).

Experiment: Stability of milled and unmilled Compound 1A in combination with calcium carbonate, HPLC
Assay type: physicochemical
Conditions: mixed with calcium carbonate, open vials at 50° C. and 75% relative humidity
Description: Samples containing 1092 mg of calcium carbonate and […] Compound 1A (either milled or unmilled) were prepared and weighed into small amber glass bottles. Samples were stored in open vials at 50° C. and 75% relative humidity. The samples were then removed after two or four weeks and stored at room temperature for up to four days prior to being analysed and were stored in open vials at 50° C. and 75% RH. The blends of Compound 1A and calcium carbonate were transferred to a glass volumetric flask and diluted to a volume of 10 ml or 100 ml with a 0.05% trifluoroacetic acid (TFA) solution in 50/50 acetonitrile/water to provide a 1 mg/ml solution of Compound 1A. The solution was stirred using a magnetic stirrer for 20 minutes then left for 5 minutes before 1 ml aliquots were taken using a plastic syringe. The aliquots were filtered through a 0.45 μm syringe filter into amber glass vials for HPLC analysis.

Measured: area % of Compound 2A compared to Compound 1A

CC(C)c1cc(Oc2c(Br)cc(NC(=O)CC(=O)O)cc2Br)ccc1O [Compound 1A, 3-[[3,5-Dibromo-4-[4-hydroxy-3-(1-methylethyl)-phenoxy]-phenyl]-amino]-3-oxopropanoic acid]
0.2 area %: milled, 2 weeks | milled, 4 weeks | unmilled, 2 weeks | unmilled, 4 weeks
